Test [1] addresses T1, LolB (Vibrio parahaemolyticus, UniProt Q87RN6).
T1 construct: Residues 26-212, N-terminal His6 tag
In words: intrinsic fluorescence quenching of purified LolB (Stern-Volmer Ksv; Kd only said to be micromolar). Format: binding.

The target of test [2] is T1, LolB. Kind of test: intrinsic fluorescence quenching of purified LolB, one-site binding fit.

The term Kd denotes the concentration at which binding is half-saturated. A higher Kd goes with lower affinity.

T1 sequence (Q87RN6 17-203): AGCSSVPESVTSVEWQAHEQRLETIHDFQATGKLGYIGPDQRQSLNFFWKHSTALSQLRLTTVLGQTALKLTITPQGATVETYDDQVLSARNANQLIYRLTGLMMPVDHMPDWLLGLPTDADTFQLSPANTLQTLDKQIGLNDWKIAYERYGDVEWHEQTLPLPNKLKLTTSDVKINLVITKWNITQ

Take `C[C@@H]1O[C@@H](OC[C@H]2O[C@@H](Oc3c(-c4ccc(OCCO)c(OCCO)c4)oc4cc(OCCO)cc(O)c4c3=O)[C@H](O)[C@@H](O)[C@@H]2O)[C@H](O)[C@H](O)[C@H]1O` [troxerutin]: on LolB [1], the “Ksv (10^4 L/mol)” value is 14.2317 10^4 L/mol.

For the compound `C=C1C[C@@]23CC[C@H]4[C@@](C)(CCC[C@@]4(C)C(=O)O[C@@H]4O[C@H](CO)[C@@H](O)[C@H](O)[C@H]4O)[C@@H]2CC[C@]1(O[C@@H]1O[C@H](CO)[C@@H](O)[C@H](O)[C@H]1O[C@@H]1O[C@H](CO)[C@@H](O)[C@H](O)[C@H]1O)C3` [stevioside], the “Ksv (10^4 L/mol)” value at LolB [1] is recorded as 6.1570 10^4 L/mol.

At LolB [2], `Oc1cc(O)c2c(c1)O[C@@H](c1ccc(O)c(O)c1)[C@@H](O[C@]1(c3ccc(O)c(O)c3)Oc3cc(O)cc(O)c3[C@@H](O)[C@H]1O)C2` [procyanidin] displayed a Kd of 14.7 ± 4.65 µM.

In the case of `C[C@@H]1O[C@@H](OC[C@H]2O[C@@H](Oc3c(-c4ccc(O)c(O)c4)oc4cc(O)cc(O)c4c3=O)[C@H](O)[C@@H](O)[C@@H]2O)[C@H](O)[C@H](O)[C@H]1O` [rutin], the “Ksv (10^4 L/mol)” value on LolB [1] is given as 8.7014 10^4 L/mol.

(Values after publication PMC9696335, “Natural Inhibitors Targeting the Localization of Lipoprotein System in Vibrio parahaemolyticus” (International Journal of Molecular Sciences, 2022).)
